# Laboratory results: patent US20100210553A1, “USE OF THE PEPTIDE ASN-ASP-ASP-CYS-GLU- LEU-CYS-VAL-ASN-VAL-ALA-CYS-THR-GLY-CYS-LEU ALONE OR IN COMBINATION WITH THE PEPTIDE THR-THR-SER-GLN-VAL- ARG-PRO-ARG AS A THERAPEUTIC AGENT” (priority 2007, published 2010)
# Ends that are not written are not given here.
# Assays:
# [1] = tested on: hepatitis B virus (HBV) ayw strain; test: HBV experimental assay system (HepG2-2.2.15, TaqMan PCR of secreted HBV DNA); assay type: cell-based; settings: 10 micrograms per ml; HepG2-2.2.15, six days; combination 0.95 mole peptide 1 and 1.05 mole peptide 2
# Excerpt: HepG2-2.2.15 is a stable cell line containing the hepatitis B virus (HBV) ayw strain genome (ATCC Cat. No. CRL-11997). Antiviral compounds blocking any late step of viral replication such as transcription, translation, pregenome encapsidation, reverse transcription, particle assembly and release can be identified and characterized using this cell line. In this assay, an active compound will reduce the production of secreted HBV from cells, measured by utilizing real time quantitative PCR (TaqMan) assay to directly and accurately measure HBV DNA copies.
# HepG2-2.2.15 cells were plated in 96-well microtiter plates. After 16-24 hours the confluent monolayer of HepG2-2.2.15 cells was washed and the medium was replaced with complete medium containing test peptides—10 micrograms per ml—in duplicate. […] Six days following the initial administration of the peptides, the cell culture supernatants was collected, treated with pronase and DNAse and then used in a real-time quantitative TaqMan PCR assay. The PCR-amplified HBV DNA was detected in real-time by monitoring increases in fluorescence signals that result from the exonucleolytic degradation of a quenched fluorescence probe molecule that hybridizes to the amplified HBV DNA. […] Antiviral activity was calculated from the reduction in HBV DNA levels (% virus control). […]
# [2] = tested on: Streptococcus pneumoniae; test: Streptococcus pneumoniae assay; assay type: cell-based; settings: 10 micrograms per ml; 5x10^5 CFU/mL, read visually; combination 0.95 mole peptide 1 and 1.05 mole peptide 2 and all other molar ratios from 1:100 to 100:1
# [3] = tested on: murine spleen cells; test: Th1/Th2 cytokine profiling assay (Ovalbumin-restimulated spleen cells, CBA Kit); assay type: cell-based, mouse; settings: 10 micrograms per ml, Ovalbumin restimulation, 72 hours, combination 0.95 mole peptide 1 and 1.05 mole peptide 2
# [4] = tested on: Primary Human endothelial cells (HUVEC); test: Endothelial cell migration assay; assay type: cell-based; settings: 10 micrograms per ml, 22 hours
# [5] = tested on: HUVEC; test: Endothelial tube formation assay; assay type: cell-based, human; settings: 10 micrograms per ml, 20 hours
# Description: The endothelial tube formation assay is based on the ability of endothelial cells to form three-dimensional capillary-like tubular structures when cultured on a gel of basement membrane extract. The endothelial tube formation assay represents a powerful model for studying inhibition and induction of angiogenesis. Pre-labeled HUVEC with Calcein AM were seeded in a 96-well culture plate coated with extracellular metrix (Chemicon international Cat. ECM625) and treated with—10 micrograms per ml—test peptides in full growth medium. Positive control was vehicle only. The endothelial cells were allowed to form tubes for 20 hours and were then examined under an inverted fluorescent microscope. Duplicate wells for each treatment were photographed and quantitatively analyzed for an average tubule length using image analysis software ImageProPlus. Raw data were expressed as average tubule lengths in pixels ±standard deviation. Statistic p values were computed using the Student's t-test.
# [6] = tested on: HCMV strain AD169; test: HCMV plaque formation assay in MRC-5 cells; settings: 10 micrograms per ml, 7-10 days
Substance,inhibition of HBV replication as compared to the virus control infection [1],inhibition of the growth of Streptococcus pneumoniae [2],change of the production of IL-5 [3],induction of the production of IFN-γ [3],induction of the production of IL-2 [3],induction of the production of IL-4 [3],induction of the production of TNF-alpha [3],inhibition of the migration of human endothelial cells [4],inhibition of the tube formation of human endothelial cells [5],inhibition of HCMV plaque formation as compared to the virus control experiment [6]
Asn-Asp-Asp-Cys-Glu-Leu-Cys-Val-Asn-Val-Ala-Cys-Thr-Gly-Cys-Leu-OH (NDDCELCVNVACTGCL-OH; cysteine pairing not given here) [Peptide 1],no effect,100%,did not significantly change,80.8%,66.9%,143.8%,57.1%,14%,18%,did not inhibit
Thr-Thr-Ser-Gln-Val-Arg-Pro-Arg-OH (TTSQVRPR-OH) [Peptide 2],31%,100%,did not significantly change,47.4%,24%,103.9%,43.7%,13%,24%,did not inhibit
